Measured values taken from patent publication US20190002429A1, “Derivatives of Xanthone Compounds” (Agency for Science, Technology and Research, priority 2011, published 2019).
Values joined by “and” are separate entries in the source; they are usually repeats but may differ in a detail not shown here. Identical values can stand only once.

Experiments:
[1] = test system: MRSA; assay: MIC99 against MRSA (Table 2-1); assay type: cell-based, Staphylococcus aureus
[2] = test system: S. aureus; assay: MIC99 against S. aureus (Table 2-1); assay type: cell-based, Staphylococcus aureus
[3] = test system: MRSA DM21455; assay: MIC against MRSA DM21455; assay type: cell-based, Staphylococcus aureus
[4] = test system: Clinical Staphylococcus aureus DM4001; assay: MIC against clinical S. aureus DM4001; assay type: cell-based; details: Clinical S. aureus DM4001, Source: Eye
[5] = test system: MRSA DM09808R; assay: MIC against MRSA DM09808R; assay type: cell-based, Staphylococcus aureus
[6] = test system: Clinical Staphylococcus aureus DM4299; assay: MIC against clinical S. aureus DM4299; assay type: cell-based
[7] = test system: MRSA DR42412; assay: MIC against MRSA DR42412; assay type: cell-based, Staphylococcus aureus
[8] = test system: MRSA DR68004; assay: MIC against MRSA DR68004; assay type: cell-based, Staphylococcus aureus; details: MRSA DR68004, Source: Blood
[9] = test system: Staphylococcus aureus ATCC29213; assay: MIC against S. aureus ATCC29213; assay type: cell-based
[10] = test system: Staphylococcus aureus ATCC 6538; assay: MIC against S. aureus ATCC 6538; assay type: cell-based
[11] = test system: Straphylococcus aureus ATCC 6538P; assay: MIC against S. aureus ATCC 6538P; assay type: cell-based, Staphylococcus aureus
[12] = test system: Straphylococcus aureus ATCC 25923; assay: MIC against S. aureus ATCC 25923; assay type: cell-based, Staphylococcus aureus
[13] = test system: Staphylococcus aureus ATCC 700699 (VISA); assay: MIC against S. aureus ATCC 700699 (MRSA-700699, VISA); assay type: cell-based
[14] = test system: Enterococcus faecalis 11: DU9345 VRE; assay: MIC against Enterococcus faecalis DU9345 VRE; assay type: cell-based; details: E. faecalis DU9345 VRE; no unit in table (Example 10 MICs in μg/ml)
[15] = pH value in different media; assay type: physicochemical
Source text: The pH values were obtained using an electronic pH meter.

[16] = test system: MRSA strain DM21455; assay: Kill curve (time killing) of MRSA; assay type: cell-based, Staphylococcus aureus; details: FIG. 1
[17] = Calcein leakage from E. coli lipid extract liposomes; details: for % Leakage of calcein: E. coli extract
Experimental: To further investigate antimicrobial action of the active compounds via inner membrane targeting, a calcein leakage study was performed. In brief, liposomes which mimic bacterial membrane (DOPE: […] The lipids were dissolved in methanol/chloroform (1:2, by volume). The solvent was then dried gently using a constant stream of nitrogen gas. Then, the lipid film was placed under vacuum for at least two hours. […] The hydrated vesicles were freeze-thaw (frozen in liquid nitrogen and warmed in water bath) for at least 7 cycles. Extrusion method using mini-extruder (Avanti Polar Lipid Inc.) was used to produce homogeneous large unilamellar vesicles (LUVs). The extrusion was done for at least 10 cycles using a polycarbonate membrane (Whatman, pore size 100 nm) to obtain LUVs with diameter of 100 nm. To separate the calcein encapsulated vesicles from free calcein, gel filtration column Sephadex G-50 was used. The concentrations of eluted liposomes were determined using total phosphorus determination assay. Leakage of calcein from the liposome induced by AM-series compounds could be monitored using fluorescence spectroscopy (Photon Technology International Model 814) at an excitation wavelength of 490 nm and an emission wavelength of 520 nm. […] Those compounds with […] HC50 values have stronger leakage %. […] To further investigate the inner membrane targeting action of AM-series compounds, E. coli lipid extract was used to construct the liposome. […] Therefore, the outer layer of Gram-negative bacteria (LPS) may play important role to impede the AM-series compounds to reach inner membrane. Calcein leakage data strongly support the active compounds are inner membrane targeting.

[18] = test system: Gram-negative bacteria; assay: Antimicrobial activity against Gram-negative bacteria (statement); assay type: cell-based
[19] = test system: S. aureus DM4001; assay: SYTOX green membrane permeabilization assay, S. aureus; details: 10 μM
Experimental: S. aureus DM4001 was harvested at early exponential phase and suspended in 40 mM PBS until OD620 of 0.09 was obtained. Then, the bacteria suspension was incubated with 3 μM of SYTOX Green in dark. The mixture was monitored in a stirring cuvette at an excitation wavelength of 504 nm and at an emission wavelength of 523 nm until the fluorescence was stable. Then, 10 μM of AM compounds were added and the changed of fluorescence emissions were monitored.

3,6-bis-[4-(diethylamino)butoxy)]-1-hydroxy-7-methoxy-2,8-bis(3-methylbut-2-enyl)-9H-xanthen-9-one [AM-016]
MIC99 MRSA [1]: 0.39 µg/mL
MIC99 S. aureus [2]: 0.39 µg/mL
Minimum inhibition concentration (MIC) ([3]; MRSA DM21455, Source: Eye): 0.39 μg/ml and 0.59 μM
MIC ([3]; MRSA-21455 (Eye), Example 10, Mueller Hinton broth dilution): 1.56 µg/mL
Minimum inhibition concentration (MIC) [4]: 1.56 μg/ml and 2.35 μM
Minimum inhibition concentration (MIC) ([5]; MRSA DM09808R, Source: Eye): 1.56 μg/ml and 2.35 μM
MIC ([5]; MRSA-09808R (Eye), Example 10, Mueller Hinton broth dilution): 3.125 µg/mL
Minimum inhibition concentration (MIC) [6]: 1.56 μg/ml and 2.35 μM
Minimum inhibition concentration (MIC) ([7]; MRSA DR42412, Source: Sputum): 1.56 μg/ml and 2.35 μM
MIC ([7]; MRSA-42412 (Sputum), Example 10, Mueller Hinton broth dilution): 0.395 µg/mL
Minimum inhibition concentration (MIC) [8]: 1.56 μg/ml and 2.35 μM
Minimum inhibition concentration (MIC) [9]: 0.39 μg/ml and 0.59 μM
Minimum inhibition concentration (MIC) [10]: 1.56 μg/ml and 2.35 μM
Minimum inhibition concentration (MIC) [11]: 0.78 μg/ml and 1.17 μM
Minimum inhibition concentration (MIC) [12]: 3.125 μg/ml and 4.70 μM
MIC ([13]; MRSA-700699, Example 10, Mueller Hinton broth dilution): 0.095 µg/mL
Minimum inhibitory concentration ([13]; S. aureus ATCC 700699 (VISA), no unit in table (Example 10 MICs in μg/ml)): 0.39
Minimum inhibitory concentration [14]: 0.78
pH ([15]; PBS, 50 μg/ml compound): 6.96 ± 0.01
pH ([15]; PBS, 100 μg/ml compound): 6.97 ± 0.01
pH ([15]; Saline, 50 μg/ml compound): 6.84 ± 0.21
pH ([15]; Saline, 100 μg/ml compound): 6.78 ± 0.05
pH ([15]; Water, 50 μg/ml compound): 6.44 ± 0.27
pH ([15]; Water, 70 μg/ml compound): 6.72 ± 0.23
Time to eliminate 99.9% of MRSA [16]: ≤ 20 min
Leakage of calcein from the E. coli lipid extract (in words) [17]: able to induce leakage
% Leakage of calcein ([17]; compound:lipid ratio 1:2): 57.82%
% Leakage of calcein ([17]; compound:lipid ratio 1:4): 58.43%
% Leakage of calcein ([17]; compound:lipid ratio 1:8): 31.70%
Activity against Gram-negative bacteria [18]: inactive
SYTOX green staining of bacteria (fluorescence microscopy) ([19]; FIG. 14): Large numbers of stained bacteria
Membrane permeabilization (SYTOX green fluorescence emission) ([19]; fluorescence spectroscopy): could induce membrane permeabilization
